Measurements taken from ChEMBL document CHEMBL1221346, “Synthesis and biological activity of N-substituted aminocarbonyl-1,3-dioxolanes as VLA-4 antagonists” (Bioorg Med Chem Lett, 2010).
Peptide text beside a SMILES is read from it. * marks the point of attachment. Tos = Cc1ccc(S(=O)(=O)*)cc1

target: T1, Integrin alpha-4 (Homo sapiens, UniProt P13612); test: Displacement of VCAM1 from VLA4 receptor in human U937 cells; assay type: cell-based, U-937; conditions: not given
T1 sequence (P13612 whole entry): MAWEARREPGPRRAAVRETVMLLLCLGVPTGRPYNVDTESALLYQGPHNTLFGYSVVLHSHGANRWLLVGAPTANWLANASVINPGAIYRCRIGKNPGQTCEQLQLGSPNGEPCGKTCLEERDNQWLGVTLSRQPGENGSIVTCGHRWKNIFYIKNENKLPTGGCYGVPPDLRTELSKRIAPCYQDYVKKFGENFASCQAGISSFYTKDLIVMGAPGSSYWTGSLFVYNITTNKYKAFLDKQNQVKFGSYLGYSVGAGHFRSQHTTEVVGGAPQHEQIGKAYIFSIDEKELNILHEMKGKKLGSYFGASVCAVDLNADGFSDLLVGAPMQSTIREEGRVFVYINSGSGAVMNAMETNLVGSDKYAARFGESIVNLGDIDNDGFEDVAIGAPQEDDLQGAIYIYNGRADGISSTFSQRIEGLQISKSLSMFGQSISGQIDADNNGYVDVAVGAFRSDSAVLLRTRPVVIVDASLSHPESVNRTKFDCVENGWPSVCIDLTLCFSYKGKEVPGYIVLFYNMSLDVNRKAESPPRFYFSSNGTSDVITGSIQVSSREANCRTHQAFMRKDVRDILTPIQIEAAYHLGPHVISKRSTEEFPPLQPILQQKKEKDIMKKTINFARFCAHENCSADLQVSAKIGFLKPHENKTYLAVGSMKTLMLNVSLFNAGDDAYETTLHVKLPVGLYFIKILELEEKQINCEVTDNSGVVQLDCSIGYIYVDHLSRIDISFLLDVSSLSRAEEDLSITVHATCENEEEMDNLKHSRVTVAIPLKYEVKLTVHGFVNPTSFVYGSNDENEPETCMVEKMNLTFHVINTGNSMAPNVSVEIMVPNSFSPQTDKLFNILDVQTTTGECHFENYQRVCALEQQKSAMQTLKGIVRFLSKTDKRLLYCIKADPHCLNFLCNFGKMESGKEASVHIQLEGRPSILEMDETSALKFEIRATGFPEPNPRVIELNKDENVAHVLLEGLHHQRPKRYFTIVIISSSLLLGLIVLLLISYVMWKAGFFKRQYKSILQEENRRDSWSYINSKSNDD

IC50	Structure (SMILES)
9 µM	O=C(Nc1ccc(C[C@H](NC(=O)[C@@H]2OCO[C@H]2C(=O)Nc2ccccc2-c2ccccc2)C(=O)O)cc1)c1ccccc1
1 µM	CC(C)(C)c1cc(NC(=O)[C@@H]2OCO[C@H]2C(=O)N[C@@H](Cc2ccc(OCc3c(Cl)cccc3Cl)cc2)C(=O)O)n(Cc2ccccc2)n1
0.1 µM	O=C(Nc1ccc(C[C@H](NC(=O)[C@@H]2OCO[C@H]2C(=O)Nc2ccccc2-c2ccccc2)C(=O)O)cc1)c1c(Cl)cccc1Cl
1.5 µM	CN(C)C(=O)[C@@H]1OCO[C@H]1C(=O)N[C@@H](Cc1ccc(OCc2c(Cl)cccc2Cl)cc1)C(=O)O
1.2 µM	CC(C)(C)NC(=O)[C@@H]1OCO[C@H]1C(=O)N[C@@H](Cc1ccc(OCc2c(Cl)cccc2Cl)cc1)C(=O)O
6.3 µM	O=C(Nc1ccc(C[C@H](NC(=O)[C@@H]2OCO[C@H]2C(=O)Nc2ccccc2-c2ccccc2)C(=O)O)cc1)c1cc(Cl)nc(Cl)c1
1.5 µM	Cc1nnc(NC(=O)[C@@H]2OCO[C@H]2C(=O)N[C@@H](Cc2ccc(OCc3c(Cl)cccc3Cl)cc2)C(=O)O)s1
2.6 µM	Cc1ccc(-n2nc(C(C)(C)C)cc2NC(=O)[C@@H]2OCO[C@H]2C(=O)N[C@@H](Cc2ccc(OCc3c(Cl)cccc3Cl)cc2)C(=O)O)cc1
8.7 µM	O=C(O)[C@H](Cc1ccc(OCc2ccccc2Cl)cc1)NC(=O)[C@@H]1OCO[C@H]1C(=O)Nc1ccccc1-c1ccccc1
6.6 µM	CC(C)NC(=O)[C@@H]1OCO[C@H]1C(=O)N[C@@H](Cc1ccc(OCc2c(Cl)cccc2Cl)cc1)C(=O)O
0.7 µM	O=C(O)[C@H](Cc1ccc(OCc2c(Cl)cccc2Cl)cc1)NC(=O)[C@@H]1OCO[C@H]1C(=O)Nc1ccccc1Cl
1.1 µM	CC(C)CCNC(=O)[C@@H]1OCO[C@H]1C(=O)N[C@@H](Cc1ccc(OCc2c(Cl)cccc2Cl)cc1)C(=O)O
8.3 µM	O=C(Nc1ccc(C[C@H](NC(=O)[C@@H]2OCO[C@H]2C(=O)Nc2ccccc2-c2ccccc2)C(=O)O)cc1)c1ccccn1
0.6 µM	COc1ccccc1NC(=O)[C@@H]1OCO[C@H]1C(=O)N[C@@H](Cc1ccc(OCc2c(Cl)cccc2Cl)cc1)C(=O)O
0.5 µM	O=C(O)[C@H](Cc1ccc(OCc2c(Cl)cccc2Cl)cc1)NC(=O)[C@@H]1OCO[C@H]1C(=O)Nc1ccccc1-c1ccccc1
1.5 µM	O=C(O)[C@H](Cc1ccc(OCc2c(Cl)cccc2Cl)cc1)NC(=O)[C@@H]1OCO[C@H]1C(=O)Nc1ccccc1
0.2 µM	O=C(O)[C@H](Cc1ccc(OCc2c(Cl)cccc2Cl)cc1)NC(=O)[C@@H]1OCO[C@H]1C(=O)Nc1nccs1
1.2 µM	CNC(=O)[C@@H]1OCO[C@H]1C(=O)N[C@@H](Cc1ccc(OCc2c(Cl)cccc2Cl)cc1)C(=O)O
3.4 µM	O=C(O)[C@H](Cc1ccc(OCc2c(Cl)cccc2Cl)cc1)NC(=O)[C@@H]1OCO[C@H]1C(=O)N1CCOCC1

IC50	Structure (SMILES)
1.5 µM	CCCCNC(=O)[C@@H]1OCO[C@H]1C(=O)N[C@@H](Cc1ccc(OCc2c(Cl)cccc2Cl)cc1)C(=O)O
0.6 µM	O=C(O)[C@H](Cc1ccc(OCc2c(Cl)cccc2Cl)cc1)NC(=O)[C@@H]1OCO[C@H]1C(=O)Nc1ccccc1F
7.9 µM	O=C(O)[C@H](Cc1ccc(OCc2c(F)cccc2F)cc1)NC(=O)[C@@H]1OCO[C@H]1C(=O)Nc1ccccc1-c1ccccc1
0.4 µM	O=C(O)[C@H](Cc1ccc(OCc2c(Cl)cccc2Cl)cc1)NC(=O)[C@@H]1OCO[C@H]1C(=O)Nc1c(Cl)cncc1Cl
0.9 µM	O=C(O)[C@H](Cc1ccc(OCc2c(Cl)cccc2Cl)cc1)NC(=O)[C@@H]1OCO[C@H]1C(=O)Nc1ccccc1C(F)(F)F
1.4 µM	O=C(O)[C@H](Cc1ccc(OCc2c(Cl)cccc2Cl)cc1)NC(=O)[C@@H]1OCO[C@H]1C(=O)NC1CCCCC1
0.7 µM	O=C(O)[C@H](Cc1ccc(OCc2c(Cl)cccc2Cl)cc1)NC(=O)[C@@H]1OCO[C@H]1C(=O)NCc1cccs1
0.6 µM	O=C(O)[C@H](Cc1ccc(OCc2c(Cl)cccc2Cl)cc1)NC(=O)[C@@H]1OCO[C@H]1C(=O)NCCc1c[nH]c2ccccc12
4.4 µM	CCCCCCCNC(=O)[C@@H]1OCO[C@H]1C(=O)N[C@@H](Cc1ccc(OCc2c(Cl)cccc2Cl)cc1)C(=O)O
9.5 µM	O=C(Nc1ccc(C[C@H](NC(=O)[C@@H]2OCO[C@H]2C(=O)Nc2ccccc2-c2ccccc2)C(=O)O)cc1)c1cccnc1
3 µM	O=C(O)[C@H](Cc1ccc(OCc2c(Cl)cccc2Cl)cc1)NC(=O)[C@@H]1OCO[C@H]1C(=O)NCc1ccc2c(c1)OCO2
0.5 µM	O=C(O)[C@H](Cc1ccc(OCc2c(Cl)cccc2Cl)cc1)NC(=O)[C@@H]1OCO[C@H]1C(=O)Nc1c(F)cccc1F
0.7 µM	O=C(O)[C@H](Cc1ccc(OCc2c(Cl)cccc2Cl)cc1)NC(=O)[C@@H]1OCO[C@H]1C(=O)Nc1c(Cl)cccc1Cl
2.8 µM	O=C(O)[C@H](Cc1ccc(OCc2c(Cl)cccc2Cl)cc1)NC(=O)[C@@H]1OCO[C@H]1C(=O)Nc1ccc(Cl)cc1
0.6 µM	O=C(O)[C@H](Cc1ccc(OCc2c(Cl)cccc2Cl)cc1)NC(=O)[C@@H]1OCO[C@H]1C(=O)Nc1nc2ccccc2s1
0.3 µM	O=C(O)[C@H](Cc1ccc(OCc2c(Cl)cccc2Cl)cc1)NC(=O)[C@@H]1OCO[C@H]1C(=O)NC1CC1
2.7 µM	O=C(Nc1ccc(C[C@H](NC(=O)[C@@H]2OCO[C@H]2C(=O)Nc2ccccc2-c2ccccc2)C(=O)O)cc1)c1ccncc1
2.1 µM	CCNC(=O)[C@@H]1OCO[C@H]1C(=O)N[C@@H](Cc1ccc(OCc2c(Cl)cccc2Cl)cc1)C(=O)O
6.3 µM	COc1ccccc1C(=O)Nc1ccc(C[C@H](NC(=O)[C@@H]2OCO[C@H]2C(=O)Nc2ccccc2-c2ccccc2)C(=O)O)cc1

system: not listed separately; test: Oral bioavailability in rat; assay type: ADME, organism-based; conditions: in vivo

bioavailability	Structure (SMILES)
10%	Cc1ccc(S(=O)(=O)N2CCC[C@H]2C(=O)N[C@@H](Cc2ccccc2)C(=O)O)cc1 (Tos-Pro-Phe-OH)

system: not listed separately; test: Metabolic stability in human liver microsome at 8 uM after 1 hr; assay type: ADME; conditions: liver microsomes, read-out: Stability

remaining at 1 h, 8 µM	Structure (SMILES)
52%	O=C(O)[C@H](Cc1ccc(OCc2c(Cl)cccc2Cl)cc1)NC(=O)[C@@H]1OCO[C@H]1C(=O)Nc1nccs1
72%	O=C(O)[C@H](Cc1ccc(OCc2c(Cl)cccc2Cl)cc1)NC(=O)[C@@H]1OCO[C@H]1C(=O)NC1CC1
